Reference: patent USRE40839E1 (The United States of America as represented by the …, priority 1992, dated 2009)

Experiments:
ovarian cancer = conditions: 34 patients with ovarian cancer; 250 mg/M^2 as 24 hour continuous infusion; cited from earlier work
breast cancer [1] = test: 96 hour continuous infusion every 21 days in breast cancer patients; conditions: 70-140 mg/M^2/96 hrs every 21 days
[2] = test system: refractory acute leukemia; conditions: cited from earlier work
breast cancer [3] = conditions: 24 hour infusion at 250 mg/M^2; similar breast cancer patient group; cited from earlier work
melanoma = conditions: 30 patients with melanoma; 250 mg/M^2 as 24 hour continuous infusion; cited from earlier work
mammalian cells = conditions: actively dividing cells; cited from earlier work
patients = conditions: infusion times up to 24 hours; cited from earlier work
[4] = test system: diffuse large cell lymphoma; test: 96 hour continuous infusion every 21 days in lymphoma patients; assay type: in vivo, human; conditions: 70-140 mg/M^2/96 hrs every 21 days
Text: This 96 hr continuous infusion was repeated every 21 days, while patients were monitored for a response after every two cycles.

[5] = 6 patients with diffuse large cell lymphoma

## CC(=O)O[C@H]1C(=O)[C@@]2(C)[C@H]([C@H](OC(=O)c3ccccc3)[C@]3(O)C[C@H](OC(=O)[C@H](O)[C@@H](NC(=O)c4ccccc4)c4ccccc4)C(C)=C1C3(C)C)[C@]1(OC(C)=O)CO[C@@H]1C[C@@H]2O [Taxol]
Ovarian cancer
  major toxicities: neutropenia and peripheral neuropathy
  objective response rate: 21%
Breast cancer [1]; 11 breast cancer patients
  number of minor remissions (MR): 2 patients
  number of partial remissions (PR): 7 patients
  partial remission rate: 64%
  total response rate: 82%
Breast cancer [1]; breast cancer, prior doxorubicin or mitoxantrone regimen
  patients with positive response (PR + MR): 9 out of the 11
[2]; 17 patients, 24 hour continuous infusion, 200 to 390 mg/M^2
  toxicity limiting further dose escalation: Severe mucositis
[2]; 17 patients, 24 hour continuous infusion, escalated from 200 to 390 mg/M^2
  maximum tolerated dose: 390 mg/M^2
[2]; of 17 patients
  patients with transient reductions in peripheral blood and bone marrow blasts: Nine
Breast cancer [3]
  response rate: 33%
melanoma
  objective response rate: 13%
Mammalian cells
  Taxol concentration that usually causes a significant increase in microtubule number, changes in cell shape and mitotic arrest: 50 Nm
patients
  dose limiting toxicity: reversible myclosuppression
[4]; [5]
  number of minor remissions (MR): 1 patients
  number of partial remissions (PR): 3 patients
  partial remission rate: 50%
[4]; diffuse large cell lymphoma
  patients in whom Taxol was active (PR + MR): 4 out of 6
